Among the data in patent US20250163009A1, “BENZOTHIA(DIA)ZEPINE COMPOUNDS FOR TREATMENT OF HBV AND HDV” (Assembly Biosciences, Inc., priority 2022, published 2025) are EC50 values, retold here.

The subject of this test is HBV. The test is described as follows: HepG2-NTCP infection protocol, HBeAg quantification by ECL-ELISA. Type of test: cell-based. The following applies: Hepatitis B virus, HepG2-NTCP cells infected with HBV at MOI 50; compound 24 hours, then 72 hours; HBeAg in supernatant. The method, then:
HepG2 cells expressing the sodium taurocholate cotransporting polypeptide (HepG2-NTCP) were maintained in culture using HepG2-NTCP growth medium (DMEM (HyClone, Cat #SH30243.02) supplemented with 10% FBS, 150 μg/mL G418 (Alfa Aesar, Cat #J62671), 50 U/mL penicillin-streptomycin (Invitrogen, Cat #15140-122), and 0.5 μg/mL blasticidin (Sigma, Cat #15205)). Prior to infection, the cells were washed twice with 1×DPBS (Invitrogen, Cat #14190-136) and treated with 3 mL of 0.05% trypsin (Invitrogen, Cat #25200-056) to dissociate the cells. Following dissociation, 10 mL of HepG2-NTCP growth medium was added to the cells to neutralize the trypsin and the cells were then centrifuged at 1,300 rpm for 5 minutes. Following centrifugation, the cells were resuspended in 10 mL of HepG2-NTCP growth medium, counted, and then centrifuged at 1,300 rpm for 5 minutes. The cell pellet was resuspended in DMEM supplemented with 5% FBS, 50 U/mL penicillin-streptomycin, 4% PEG-8000 (Hamilton Research, Cat #HR2-515), and 1% DMSO (Sigma, Cat #D4540) to a density of 5.6×10^5 cells/mL and infected with HBV at an MOI of 50. Immediately after infection, 90 μL of the cell/HBV mixture was added to a 96-well plate containing 10 μL of compound and incubated at 37° C. for 24 hours (2% final DMSO concentration). After the incubation, the infection media was removed and replaced with DMEM supplemented with 5% FBS, 50 U/mL penicillin-streptomycin, and 1% DMSO and incubated for an additional 72 hours. At the end of the incubation, the plates were spun at 1,800 rpm for 8 minutes and the supernatant was removed for HBeAg quantification using electrochemiluminescence enzyme-linked immunosorbent assays (ECL-ELISA).
To conduct the HBeAg ECL-ELISA, Lumitrack high-binding 96-well plates (Greiner, Cat #655074) were treated with 625 ng/mL HBeAg mAb (Biocheck, Cat #70426) in 1×DPBS for 2 hours at 25° C. with shaking. The HBeAg mAb solution was then removed and the plates treated with 1×DPBS containing 0.5% bovine serum albumin (BSA) (Sigma, Cat #A7030-100 g) for 2 hours at 25° C. with shaking. The HBeAg-coated plates were then washed 4 times with 1×DPBS containing 0.05% Tween 20 (DPBS-T) (Thermo Fisher Scientific, Cat #J61544-K2). Following the wash, 90 μL of HRP-conjugated antibody (Fitzgerald, Cat #61-H10K), diluted 1:8,000 in 1×DPBS-T containing 0.5% BSA, was added to the HBeAg-coated plates along with 10 μL of sample. The plates were then incubated for 2 hours at 25° C. with shaking. Following the incubation, the sample was then removed and 200 μL of 1×PBS-T was added and the plates were incubated for 10 minutes at 25° C. with shaking. The plates were then washed 6 times with 1×PBS-T and blotted dry. 80 μL of ECL substrate (Millipore, Cat #WBKLS0500) was then added to the plate and the luminescence was measured using a Tecan M1000 Pro plate reader.
(In an ELISA, binding on a coated surface is turned into a signal by an enzyme label.)
On to `CCCCC1CN(C2CCOC2)c2cc(SC)c(O/C=C(\F)C(=O)O)cc2S(=O)(=O)N1C` (centres unmarked) [Example 50], for which the EC50 was 100 to 1000 nM.

`CCCCC1CN(C2CCC(N)CC2)c2cc(SC)c(O/C=C(\F)C(=O)O)cc2S(=O)(=O)N1C` (centres unmarked) [Example 51] showed an EC50 of 1000 to 5000 nM.

`CCCCC1CN(C(C)c2ccccc2)c2cc(SC)c(O/C=C(\F)C(=O)O)cc2S(=O)(=O)N1C` (centres unmarked) [Example 52] registered an EC50 of less than 100 nM.

Take `CCCCC1CN(c2ccn(C)n2)c2cc(SC)c(O/C=C(\F)C(=O)O)cc2S(=O)(=O)N1C` (centres unmarked) [Example 53]: the half-maximal effective concentration (EC50) lay within 100 to 1000 nM.

`CCCCC1CN([C@H]2CC[C@H](OC)CC2)c2cc(SC)c(O/C=C(\F)C(=O)O)cc2S(=O)(=O)N1C` (some centres unmarked) [Example 56]: the EC50 is less than 100 nM.

For orientation: EC50 means the concentration at which the effect is half-maximal. A low value points to higher potency in that assay.
